In US7348425B2, “Inhibitors of HCV replication” (Bristol-Myers Squibb Company, priority 2004, dated 2008):
pEC50, pIC50: −log10 of the molar value.

Tests used:
HCV replicon = HCV replicon FRET assay; format: cell-based; settings: Hepatitis C virus; FRET assay; read-out: EC50
Method in brief: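 Replicon cells (± Renilla luciferase reporter) incubated with titrated compound at 37 °C; NS3 protease activity read by FRET peptide cleavage (20 uM EDANS/DABCYL substrate, 340/490 nm kinetic) or luciferase.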

[1] = molecular target: T1, HCV NS5B RdRp genotype 1b (Hepatitis C virus genotype 1b, UniProt Q9WMX2); assay: Modified HCV NS5B RdRp enzyme assay (with preincubation); format: biochemical
T1 construct: The protein was expressed with an 18 amino acid C-terminal truncation to enhance the solubility; made in house; host or cells: E. coli BL21 (DE3), pET21a
Method in brief: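 C-terminally truncated (Δ18) genotype 1b NS5B from E. coli was preincubated (14 nM) with compound, then reaction started with polyA template (0.2 nM), ³H-UTP (0.29 μM) and dT12 primer (20 nM) precaptured on SPA beads. Reaction ran 4 h at 30 °C in pH 7.5 Hepes buffer with 2% DMSO. IC50 came from seven concentrations.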

[2] = modified method (with preincubation)

T1 sequence (Q9WMX2 2420-2992): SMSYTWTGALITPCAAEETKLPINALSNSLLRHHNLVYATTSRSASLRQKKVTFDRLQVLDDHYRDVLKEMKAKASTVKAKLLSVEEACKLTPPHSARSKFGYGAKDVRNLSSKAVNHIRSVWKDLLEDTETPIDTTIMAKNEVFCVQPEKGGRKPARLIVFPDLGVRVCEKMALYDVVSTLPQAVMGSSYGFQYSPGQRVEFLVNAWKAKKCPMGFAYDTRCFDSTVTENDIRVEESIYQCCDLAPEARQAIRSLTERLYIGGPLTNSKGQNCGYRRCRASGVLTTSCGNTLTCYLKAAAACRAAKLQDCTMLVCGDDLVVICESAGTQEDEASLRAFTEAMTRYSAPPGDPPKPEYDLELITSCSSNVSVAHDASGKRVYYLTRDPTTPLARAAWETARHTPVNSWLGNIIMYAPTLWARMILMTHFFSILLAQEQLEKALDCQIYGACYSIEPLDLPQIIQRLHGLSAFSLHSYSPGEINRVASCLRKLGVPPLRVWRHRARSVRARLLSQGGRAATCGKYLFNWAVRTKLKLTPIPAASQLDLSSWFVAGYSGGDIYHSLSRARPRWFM

Row | Compound | pEC50 (HCV replicon) | pIC50 ([1]; preincubation protocol) | pIC50 [1, 2]
1 | CN(C)S(=O)(=O)NC(=O)c1ccc2c(C3CCCCC3)c3n(c2c1)CCCN(C(=O)OC(C)(C)C)c1ccccc1-3 | 6.00 to 7.30 | 6.00 to 8.00 | 
2 | CN(Cc1ccc(/C=C/C(=O)O)cc1)S(=O)(=O)NC(=O)c1ccc2c(C3CCCCC3)c3n(c2c1)CC(=O)Nc1ccccc1-3 | 5.00 to 6.00 |  | 6.00 to 7.70
3 | COC(=O)C1=Cc2ccncc2-c2c(C3CCCCC3)c3ccc(C(=O)OC)cc3n2C1 | 5.00 to 6.00 |  | < 6.00
4 | CNS(=O)(=O)NC(=O)c1ccc2c(C3CCCCC3)c3n(c2c1)CC(C(=O)N1C[C@@H](C)O[C@@H](C)C1)=Cc1cc(F)ccc1-3 | 6.00 to 7.30 | 6.00 to 8.00 | 
5 | COC(=O)c1ccc2c(C3CCCCC3)c3n(c2c1)CC(C(=O)N1CCOCC1)Cc1ccncc1-3 (centres unmarked) | 6.00 to 8.00 |  | < 6.00
6 | O=C1Cn2c(c(C3CCCCC3)c3ccc(C(=O)NS(=O)(=O)N4CCCC4)cc32)-c2ccccc2N1 | 6.00 to 8.00 |  | 6.00 to 7.70
7 | CC(C)N(C)C(=O)C1=Cc2ccccc2-c2c(C3CCCCC3)c3ccc(C(=O)NS(=O)(=O)N(C)C)cc3n2C1 | 6.00 to 8.00 |  | 6.00 to 7.70
8 | O=C(NS(=O)(=O)N1CCCC1)c1ccc2c(C3CCCCC3)c3n(c2c1)CC(C(=O)N1CCOCC1)Cc1ccccc1-3 (centres unmarked) | 6.00 to 8.00 |  | 6.00 to 7.70
9 | CN(C)S(=O)(=O)NC(=O)c1ccc2c(C3CCCCC3)c3n(c2c1)CC(=O)Nc1ccccc1-3 | 6.00 to 8.00 |  | 6.00 to 7.70
10 | C[C@@H]1CN(C(=O)C2=Cc3ccccc3-c3c(C4CCCCC4)c4ccc(C(=O)NC5(C(=O)Nc6ccc(-c7cnco7)cc6)CCCC5)cc4n3C2)C[C@H](C)O1 | 6.00 to 7.30 | 6.00 to 8.00 | 
11 | COC(=O)c1ccc2c(C3CCCCC3)c3n(c2c1)CC(CO)Cc1ccccc1-3 (centres unmarked) | 6.00 to 8.00 |  | < 6.00
12 | C[C@@H]1CN(C(=O)C2=Cc3cc(F)ccc3-c3c(C4CCCCC4)c4ccc(C(=O)NS(=O)(=O)N(C)C)cc4n3C2)C[C@H](C)O1 | 6.00 to 7.30 | 6.00 to 8.00 | 
13 | N#Cc1ccc2c(C3CCCCC3)c3n(c2c1)CCCc1ncccc1-3 | 6.00 to 8.00 |  | < 6.00
14 | O=C(NS(=O)(=O)C1CC1)c1ccc2c(C3CCCCC3)c3n(c2c1)CC(C(=O)N1CCOCC1)=Cc1ccccc1-3 | 6.00 to 8.00 |  | 6.00 to 7.70
15 | COC(=O)c1ccc2c(C3CCCCC3)c3n(c2c1)CC(C(=O)O)Cc1ccccc1-3 (centres unmarked) | < 5.00 |  | < 6.00
16 | CN(C)C(=O)C1=Cc2ccccc2-c2c(C3CCCCC3)c3ccc(C(=O)O)cc3n2C1 | 6.00 to 8.00 |  | 6.00 to 7.70
17 | CN(C)S(=O)(=O)NC(=O)c1ccc2c(C3CCCCC3)c3n(c2c1)CC(C(=O)N1CCN(c2ccncc2)CC1)=Cc1ccccc1-3 | 6.00 to 8.00 |  | 6.00 to 7.70
18 | O=C(O)c1ccc2c(C3CCCCC3)c3n(c2c1)C=C(C(=O)N1CCOCC1)Cc1ccncc1-3 | < 5.00 |  | < 6.00
19 | COC(=O)/C=C/c1ccc(NC(=O)C2(NC(=O)c3ccc4c(C5CCCCC5)c5n(c4c3)CCCc3ncccc3-5)CCCC2)cc1 | 6.00 to 8.00 |  | 6.00 to 7.70
20 | COC(=O)c1ccc2c(C3CCCCC3)c3n(c2c1)CC(=O)N(CCN(C)C)c1ccccc1-3 | 5.00 to 6.00 |  | < 6.00
21 | CN(Cc1ccccc1)S(=O)(=O)NC(=O)c1ccc2c(C3CCCCC3)c3n(c2c1)CC(=O)Nc1ccccc1-3 | 6.00 to 8.00 |  | 6.00 to 7.70

Row | Compound | pEC50 (HCV replicon) | pIC50 ([1]; preincubation protocol) | pIC50 [1, 2]
22 | CN(C)S(=O)(=O)NC(=O)c1ccc2c(C3CCCCC3)c3n(c2c1)CC(C(=O)O)=Cc1ccccc1-3 | < 5.00 |  | 6.00 to 7.70
23 | CN1CCN(C(=O)C2Cc3ccccc3-c3c(C4CCCCC4)c4ccc(C(=O)NC5(C(=O)Nc6ccc(/C=C/C(=O)O)cc6)CCCC5)cc4n3C2)CC1 (centres unmarked) | 6.00 to 8.00 |  | 6.00 to 7.70
24 | O=C(O)c1ccc2c(C3CCCCC3)c3n(c2c1)C[C@@H](O)[C@@H](O)c1ncccc1-3 | 5.00 to 6.00 |  | 6.00 to 7.70
25 | O=C(O)c1ccc2c(C3CCCCC3)c3n(c2c1)C[C@@H](O)[C@@H](O)c1ccccc1-3 | 5.00 to 6.00 |  | 6.00 to 7.70
26 | COc1cccc2c1C=C(C(=O)N1C[C@@H](C)O[C@@H](C)C1)Cn1c-2c(C2CCCCC2)c2ccc(C(=O)NS(=O)(=O)N(C)C)cc21 | 6.00 to 7.30 | 6.00 to 8.00 | 
27 | O=C(NS(=O)(=O)c1ccccc1)c1ccc2c(C3CCCCC3)c3n(c2c1)CC=Cc1ncccc1-3 | < 5.00 |  | 6.00 to 7.70
28 | CC(C)S(=O)(=O)NC(=O)c1ccc2c(C3CCCCC3)c3n(c2c1)CC(C(=O)N1CCOCC1)Cc1ccccc1-3 (centres unmarked) | 6.00 to 8.00 |  | 6.00 to 7.70
29 | CN(C)S(=O)(=O)NC(=O)c1ccc2c(C3CCCCC3)c3n(c2c1)CCN(C(=O)OC(C)(C)C)c1ccccc1-3 | 6.00 to 8.00 |  | 6.00 to 7.70
30 | COC(=O)c1ccc2c(c1)CCN(S(=O)(=O)NC(=O)c1ccc3c(C4CCCCC4)c4n(c3c1)CC(=O)Nc1ccccc1-4)C2 | 5.00 to 6.00 |  | 6.00 to 7.70
31 | CCOC(=O)N1CCn2c(c(C3CCCCC3)c3ccc(C(=O)NS(=O)(=O)C4CC4)cc32)-c2ccccc21 | 6.00 to 8.00 |  | 6.00 to 7.70
32 | CN(C)C(=O)c1ccc2c(C3CCCCC3)c3n(c2c1)CC(C(=O)N1CCOCC1)=Cc1ccccc1-3 | 5.00 to 6.00 |  | 6.00 to 7.70
33 | O=C(O)/C=C/c1ccc(NC(=O)C2(NC(=O)c3ccc4c(C5CCCCC5)c5n(c4c3)C[C@@H](O)[C@@H](O)c3ncccc3-5)CCCC2)cc1 | 6.00 to 8.00 |  | 6.00 to 7.70
34 | O=C(O)c1ccc2c(C3CCCCC3)c3n(c2c1)CC(C(=O)N1CCOCC1)=Cc1cccnc1-3 | 6.00 to 8.00 |  | 6.00 to 7.70
35 | C[C@@H]1CN(C(=O)C2(F)Cc3ccccc3-c3c(C4CCCCC4)c4ccc(C(=O)O)cc4n3C2)C[C@H](O)O1 (some centres unmarked) | 5.00 to 6.00 | 6.00 to 8.00 | 
36 | O=C(O)/C=C/c1ccc(NC(=O)C2(NC(=O)c3ccc4c(C5CCCCC5)c5n(c4c3)CC(=O)Nc3ccccc3-5)CCCC2)cc1 | 6.00 to 8.00 |  | 6.00 to 7.70
37 | COC(=O)c1ccc2c(C3CCCCC3)c3n(c2c1)CC(C(=O)O)=Cc1ccccc1-3 | 6.00 to 8.00 |  | 6.00 to 7.70
38 | O=C(O)c1ccc2c(C3CCCCC3)c3n(c2c1)CC(C(=O)N1CCOCC1)=Cc1ccncc1-3 | 5.00 to 6.00 |  | 6.00 to 7.70
39 | COC(=O)c1ccc2c(C3CCCCC3)c3n(c2c1)CC(C(=O)N1CCOCC1)=Cc1cc(OC)ccc1-3 | 6.00 to 8.00 |  | 6.00 to 7.70
40 | O=C1Cn2c(c(C3CCCCC3)c3ccc(C(=O)NC4(C(=O)Nc5ccc(-c6cscn6)cc5)CCCC4)cc32)-c2ccccc2N1 | 6.00 to 8.00 |  | 6.00 to 7.70
41 | O=C(NC1(C(=O)Nc2ccc(-c3csc(C(=O)O)n3)cc2)CCCC1)c1ccc2c(C3CCCCC3)c3n(c2c1)CCCc1ccccc1-3 | 6.00 to 8.00 |  | 6.00 to 7.70
42 | COC(=O)C1=Cc2cccnc2-c2c(C3CCCCC3)c3ccc(C(=O)OC)cc3n2C1 | 5.00 to 6.00 |  | < 6.00

Row | Compound | pEC50 (HCV replicon) | pIC50 ([1]; preincubation protocol) | pIC50 [1, 2]
43 | Cc1nc2c(s1)CCCn1c-2c(C2CCCCC2)c2ccc(C(=O)NC3(C(=O)Nc4ccc(/C=C/C(=O)O)cc4)CCCC3)cc21 | 5.00 to 6.00 |  | 6.00 to 7.70
44 | O=C(NS(=O)(=O)c1ccccc1)c1ccc2c(C3CCCCC3)c3n(c2c1)CCCc1ncccc1-3 | 5.00 to 6.00 |  | 6.00 to 7.70
45 | CN(C)S(=O)(=O)NC(=O)c1ccc2c(C3CCCCC3)c3n(c2c1)C[C@@H](O)[C@@H](O)c1ncccc1-3 | < 5.00 |  | 6.00 to 7.70
46 | CN(CCO)C(=O)C1=Cc2ccccc2-c2c(C3CCCCC3)c3ccc(C(=O)NS(=O)(=O)N(C)C)cc3n2C1 | 6.00 to 8.00 |  | 6.00 to 7.70
47 | O=C(NS(=O)(=O)Cc1ccccc1)c1ccc2c(C3CCCCC3)c3n(c2c1)CCCc1ncccc1-3 | 5.00 to 6.00 |  | 6.00 to 7.70
48 | CN(C)S(=O)(=O)NC(=O)c1ccc2c(C3CCCCC3)c3n(c2c1)CC(O)Cc1ccccc1-3 (centres unmarked) | 6.00 to 8.00 |  | 6.00 to 7.70
49 | CN(C)C(=O)N1CCn2c(c(C3CCCCC3)c3ccc(C(=O)NS(=O)(=O)N(C)C)cc32)-c2ccccc21 | 6.00 to 8.00 |  | 6.00 to 7.70
50 | COC(=O)/C=C/c1ccc2[nH]c(C3(NC(=O)c4ccc5c(C6CCCCC6)c6n(c5c4)CC(=O)Nc4ccccc4-6)CCCC3)nc2c1 | > 7.00 |  | 6.00 to 7.70
51 | COC(=O)/C=C/c1ccc(NC(=O)C2(NC(=O)c3ccc4c(C5CCCCC5)c5c6ccccc6ncn5c4c3)CCCC2)cc1 | 5.00 to 6.00 |  | < 6.00
52 | COc1cc(CNC(=O)c2ccc3c(C4CCCCC4)c4n(c3c2)CC(=O)Nc2ccccc2-4)ccc1O | > 7.00 |  | 6.00 to 7.70
53 | CN(C)S(=O)(=O)NC(=O)c1ccc2c(C3CCCCC3)c3n(c2c1)CCNc1ccccc1-3 | 6.00 to 8.00 |  | 6.00 to 7.70
54 | Cn1cnc(S(=O)(=O)NC(=O)c2ccc3c(C4CCCCC4)c4n(c3c2)C[C@@H](O)[C@@H](O)c2ncccc2-4)c1 | < 5.00 |  | 6.00 to 7.70
55 | Nc1nc2c(s1)CCCn1c-2c(C2CCCCC2)c2ccc(C(=O)O)cc21 | < 5.00 |  | < 6.00
56 | CN(Cc1ccc(C(=O)O)cc1)S(=O)(=O)NC(=O)c1ccc2c(C3CCCCC3)c3n(c2c1)CC(=O)Nc1ccccc1-3 | 5.00 to 6.00 |  | 6.00 to 7.70
57 | COc1ccc2c(c1)CC(F)(C(=O)N1C[C@@H](C)O[C@@H](C)C1)Cn1c-2c(C2CCCCC2)c2ccc(C(=O)NS(=O)(=O)N(C)C)cc21 (some centres unmarked) | 6.00 to 7.30 | 6.00 to 8.00 | 
58 | CC(C)(C)OC(=O)N1CCn2c(c(C3CCCCC3)c3ccc(C(=O)NS(C)(=O)=O)cc32)-c2ccccc21 | 6.00 to 8.00 |  | 6.00 to 7.70
59 | COC(=O)c1ccc2c(C3CCCCC3)c3n(c2c1)CC(C(=O)O)=Cc1cc(OCc2ccccc2)ccc1-3 | 5.00 to 6.00 |  | < 6.00
60 | O=C(O)/C=C/c1ccc(NC(=O)C2(NC(=O)c3ccc4c(C5CCCCC5)c5n(c4c3)CC(C(=O)N3CCCCC3)Cc3ccccc3-5)CCCC2)cc1 (centres unmarked) | 6.00 to 8.00 |  | 6.00 to 7.70
61 | COC(=O)c1ccc2c(C3CCCCC3)c3n(c2c1)CC(C(=O)N1CCOCC1)=Cc1cccnc1-3 | 5.00 to 6.00 |  | < 6.00
